Measurements published in PMC10485159, “Biochemical functions and structure of Caenorhabditis elegans ZK177.8 protein: Aicardi–Goutières syndrome SAMHD1 dNTPase ortholog” (The Journal of Biological Chemistry, 2023).

What was measured:
ZK177.8^41–565 = target: T1, ZK177.8^41–565 (Caenorhabditis elegans, UniProt Q09374, H134R/D135N); assay: X-ray crystallography, […] Å; format: binding; conditions: crystals with 1 mM GTP / 10 mM dATP, pH 5.5
T1 construct: gene sahd-1; tetramer in asymmetric unit
T1 sequence (Q09374 41-565 H134R/D135N): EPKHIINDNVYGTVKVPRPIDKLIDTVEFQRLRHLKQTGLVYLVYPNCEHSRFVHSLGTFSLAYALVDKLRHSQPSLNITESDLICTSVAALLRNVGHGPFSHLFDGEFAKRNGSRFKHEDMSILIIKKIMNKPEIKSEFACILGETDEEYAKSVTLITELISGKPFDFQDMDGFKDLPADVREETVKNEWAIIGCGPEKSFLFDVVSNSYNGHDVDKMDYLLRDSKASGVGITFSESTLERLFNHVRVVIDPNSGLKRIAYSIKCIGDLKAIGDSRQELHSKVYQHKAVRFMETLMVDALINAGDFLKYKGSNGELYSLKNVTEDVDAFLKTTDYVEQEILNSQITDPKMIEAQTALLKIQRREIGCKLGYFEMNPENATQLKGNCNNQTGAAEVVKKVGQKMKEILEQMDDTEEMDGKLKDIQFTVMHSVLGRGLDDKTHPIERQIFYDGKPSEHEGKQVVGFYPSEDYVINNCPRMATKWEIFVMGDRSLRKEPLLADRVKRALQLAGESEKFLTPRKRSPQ

hSAMHD1 = target: T2, hSAMHD1 (Homo sapiens, UniProt Q9Y3Z3); assay: formaldehyde cross-linking, dGTP-induced tetramerization, SDS-PAGE; format: binding; conditions: 2 mM dGTP, 10 μM protein, 50 mM KCl, 5 mM MgCl2, pH 7.5; allosteric activator; dGTPase activity also compared in supplement Fig. S3
T2 construct: gene SAMHD1; purified human SAMHD1; construct not described; dGTP-induced tetramer
T2 sequence (Q9Y3Z3 whole entry): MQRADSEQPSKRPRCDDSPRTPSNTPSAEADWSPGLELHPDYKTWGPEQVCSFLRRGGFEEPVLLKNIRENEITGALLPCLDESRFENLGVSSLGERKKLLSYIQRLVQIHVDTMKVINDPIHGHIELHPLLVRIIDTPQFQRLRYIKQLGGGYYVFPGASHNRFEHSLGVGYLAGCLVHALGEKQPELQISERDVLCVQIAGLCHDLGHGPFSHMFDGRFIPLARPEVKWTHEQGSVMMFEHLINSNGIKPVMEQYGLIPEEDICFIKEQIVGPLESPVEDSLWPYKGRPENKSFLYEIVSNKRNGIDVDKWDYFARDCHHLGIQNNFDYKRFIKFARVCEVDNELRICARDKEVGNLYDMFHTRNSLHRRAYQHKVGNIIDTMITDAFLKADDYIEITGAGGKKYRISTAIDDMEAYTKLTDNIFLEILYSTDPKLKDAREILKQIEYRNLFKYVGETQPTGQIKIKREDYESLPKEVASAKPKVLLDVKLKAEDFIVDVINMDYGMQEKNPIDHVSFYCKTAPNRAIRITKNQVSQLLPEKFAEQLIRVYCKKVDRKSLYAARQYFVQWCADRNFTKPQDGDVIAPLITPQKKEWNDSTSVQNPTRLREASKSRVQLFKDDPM

`Nc1nc2c(ncn2[C@@H]2O[C@H](COP(=O)(O)OP(=O)(O)OP(=O)(O)O)[C@@H](O)[C@H]2O)c(=O)[nH]1` [GTP] was tested, and the “X-ray crystallography, 1.81 Å” value (ZK177.8^41–565; allosteric site A1 at tetramer interface) was “Two nucleotides, GTP and dATP, occupy the allosteric site located at the tetramer interface”.
`Nc1ncnc2c1ncn2[C@H]1C[C@H](O)[C@@H](COP(=O)(O)OP(=O)(O)OP(=O)(O)O)O1` [dATP] was tested, and the “X-ray crystallography, 1.81 Å” value (ZK177.8^41–565; catalytic site, unhydrolysed, no catalytic metal, also bound at allosteric site A2) was “within each monomer, a dATP molecule occupies its catalytic site”.
For `Nc1nc2c(ncn2[C@H]2C[C@H](O)[C@@H](COP(=O)(O)OP(=O)(O)OP(=O)(O)O)O2)c(=O)[nH]1` [dGTP], the “formaldehyde cross-linking, dGTP-induced tetramerization, SDS-PAGE” value (hSAMHD1) was “we detected the tetramer formation of hSAMHD1 protein only in the presence of dGTP”.
